System: MV-4-11 cells
Experiment: Gene expression microarray analysis (Affymetrix PrimeView) and GSEA
Assay type: cell-based, human
Parameters: RFU PODN (11730768_x_at) / Fold change /veh PODN (11730768_x_at) / RFU LINC00158 (11744669_a_at) / Fold change /veh LINC00158 (11744669_a_at) / RFU DUSP10 (11751237_a_at) / Fold change /veh DUSP10 (11751237_a_at) / RFU ID3 (11757404_x_at) / Fold change /veh ID3 (11757404_x_at) / RFU PLEKHG5 (11737974_s_at) / Fold change /veh PLEKHG5 (11737974_s_at) / RFU LRRC4B (11730491_at) / Fold change /veh LRRC4B (11730491_at) / RFU GIMAP4 (11747438_a_at) / Fold change /veh GIMAP4 (11747438_a_at) / RFU KRT8 (11758183_x_at) / Fold change /veh KRT8 (11758183_x_at) / RFU CNN1 (11734310_a_at) / Fold change /veh CNN1 (11734310_a_at) / RFU VPS37D (11726825_at) / Fold change /veh VPS37D (11726825_at) / RFU C10orf10 (11716522_x_at) / Fold change /veh C10orf10 (11716522_x_at) / RFU KIR2DL2 /// KIR2DL4 /// KIR2DL5A /// KIR2DL5B /// KIR2DS1 /// KIR2DS2 /// KIR2DS3 /// KIR2DS4 /// KIR3DL3 /// KIR3DL3 /// KIR3DS1 (11738374_at) / Fold change /veh KIR2DL2 /// KIR2DL4 /// KIR2DL5A /// KIR2DL5B /// KIR2DS1 /// KIR2DS2 /// KIR2DS3 /// KIR2DS4 /// KIR3DL3 /// KIR3DL3 /// KIR3DS1 (11738374_at) / RFU C1QL1 (11718748_at) / Fold change /veh C1QL1 (11718748_at) / RFU TMPRSS4 (11747572_a_at) / Fold change /veh TMPRSS4 (11747572_a_at) / RFU HAMP (11756126_x_at) / Fold change /veh HAMP (11756126_x_at) / RFU RNFT2 (11725882_a_at) / Fold change /veh RNFT2 (11725882_a_at) / RFU NR4A2 (11747474_a_at) / Fold change /veh NR4A2 (11747474_a_at) / RFU ABCC12 (11746883_a_at) / Fold change /veh ABCC12 (11746883_a_at) / RFU TMEM136 (11760407_x_at) / Fold change /veh TMEM136 (11760407_x_at) / RFU CLDN22 /// WWC2 (11732394_at) / Fold change /veh CLDN22 /// WWC2 (11732394_at) / RFU HLA-DPB1 (11760878_x_at) / Fold change /veh HLA-DPB1 (11760878_x_at) / RFU SPINT1 (11716480_a_at) / Fold change /veh SPINT1 (11716480_a_at) / RFU GAP43 (11754022_s_at) / Fold change /veh GAP43 (11754022_s_at) / RFU A4GNT (11735810_at) / Fold change /veh A4GNT (11735810_at) / RFU PRB3 (11715151_x_at) / Fold change /veh PRB3 (11715151_x_at) / RFU TUBB4B (11761932_at) / Fold change /veh TUBB4B (11761932_at) / RFU CAPN14 (11732068_a_at) / Fold change /veh CAPN14 (11732068_a_at) / RFU TMCC2 (11721928_a_at) / Fold change /veh TMCC2 (11721928_a_at) / RFU IRGQ (11745062_a_at) / Fold change /veh IRGQ (11745062_a_at) / RFU FAM174B (11720279_a_at) / Fold change /veh FAM174B (11720279_a_at) / RFU TMPRSS4 (11748680_a_at) / Fold change /veh TMPRSS4 (11748680_a_at) / RFU FAM212B (11763350_a_at) / Fold change /veh FAM212B (11763350_a_at) / RFU PLEKHG5 (11743358_a_at) / Fold change /veh PLEKHG5 (11743358_a_at) / RFU ZSCAN30 (11745921_a_at) / Fold change /veh ZSCAN30 (11745921_a_at) / RFU CMKLR1 (11741424_a_at) / Fold change /veh CMKLR1 (11741424_a_at) / RFU LOC101060620 /// MAPK8IP1 (11723275_at) / Fold change /veh LOC101060620 /// MAPK8IP1 (11723275_at) / RFU SPTSSB (11747773_x_at) / Fold change /veh SPTSSB (11747773_x_at) / RFU PRSS12 (11739890_at) / Fold change /veh PRSS12 (11739890_at) / RFU BIN1 (11741810_x_at) / Fold change /veh BIN1 (11741810_x_at) / RFU WNT11 (11732464_a_at) / Fold change /veh WNT11 (11732464_a_at) / RFU C10orf10 (11716521_a_at) / Fold change /veh C10orf10 (11716521_a_at) / RFU C5orf56 (11738089_at) / Fold change /veh C5orf56 (11738089_at) / RFU CYB561 (11721691_x_at) / Fold change /veh CYB561 (11721691_x_at) / RFU ANKRD19P (11752326_a_at) / Fold change /veh ANKRD19P (11752326_a_at) / RFU OR2T12 /// OR2T33 /// OR2T8 (11738714_s_at) / Fold change /veh OR2T12 /// OR2T33 /// OR2T8 (11738714_s_at) / RFU VCAN (11748164_a_at) / Fold change /veh VCAN (11748164_a_at) / RFU JSRP1 (11732532_at) / Fold change /veh JSRP1 (11732532_at) / RFU KRTAP10-11 (11738290_x_at) / Fold change /veh KRTAP10-11 (11738290_x_at) / RFU MYO3A (11730013_a_at) / Fold change /veh MYO3A (11730013_a_at) / RFU EBF3 (11725865_a_at) / Fold change /veh EBF3 (11725865_a_at) / RFU CAMK2N1 (11719241_x_at) / Fold change /veh CAMK2N1 (11719241_x_at) / RFU C5orf56 (11738088_a_at) / Fold change /veh C5orf56 (11738088_a_at) / RFU OLFML3 (11715873_a_at) / Fold change /veh OLFML3 (11715873_a_at) / RFU LOC100653217 /// NTM (11731650_a_at) / Fold change /veh LOC100653217 /// NTM (11731650_a_at) / RFU MAPK11 (11762145_a_at) / Fold change /veh MAPK11 (11762145_a_at) / RFU FIZ1 (11724087_x_at) / Fold change /veh FIZ1 (11724087_x_at) / RFU OASL (11726364_x_at) / Fold change /veh OASL (11726364_x_at) / RFU SOX15 (11748057_x_at) / Fold change /veh SOX15 (11748057_x_at) / RFU CD79A (11719716_a_at) / Fold change /veh CD79A (11719716_a_at) / RFU HIST1H1D (11736915_at) / Fold change /veh HIST1H1D (11736915_at) / RFU CASKIN2 (11723855_a_at) / Fold change /veh CASKIN2 (11723855_a_at) / RFU LOC730098 (11760151_x_at) / Fold change /veh LOC730098 (11760151_x_at) / RFU OR4N2 (11742367_at) / Fold change /veh OR4N2 (11742367_at) / RFU PRRT2 (11749266_a_at) / Fold change /veh PRRT2 (11749266_a_at) / RFU SNX32 (11753110_a_at) / Fold change /veh SNX32 (11753110_a_at) / RFU CDHR5 (11726645_a_at) / Fold change /veh CDHR5 (11726645_a_at) / RFU RCAN1 (11760418_a_at) / Fold change /veh RCAN1 (11760418_a_at) / RFU FAM167A (11723789_a_at) / Fold change /veh FAM167A (11723789_a_at) / RFU FAM26E (11764081_at) / Fold change /veh FAM26E (11764081_at) / RFU ISYNA1 (11749810_s_at) / Fold change /veh ISYNA1 (11749810_s_at) / RFU ACY1 (11761880_at) / Fold change /veh ACY1 (11761880_at) / RFU 11764098_at / Fold change /veh 11764098_at / RFU SAMD14 (11745864_x_at) / Fold change /veh SAMD14 (11745864_x_at) / RFU NPB (11741838_a_at) / Fold change /veh NPB (11741838_a_at) / RFU TMPRSS6 (11731388_a_at) / Fold change /veh TMPRSS6 (11731388_a_at) / RFU KRTAP10-2 (11738614_at) / Fold change /veh KRTAP10-2 (11738614_at) / RFU ARHGAP8 /// PRR5-ARHGAP8 (11727945_x_at) / Fold change /veh ARHGAP8 /// PRR5-ARHGAP8 (11727945_x_at) / RFU KRTAP5-7 /// NADSYN1 (11734609_at) / Fold change /veh KRTAP5-7 /// NADSYN1 (11734609_at) / RFU RASL12 (11751679_a_at) / Fold change /veh RASL12 (11751679_a_at) / RFU CDKN2B (11736163_a_at) / Fold change /veh CDKN2B (11736163_a_at) / RFU PRF1 (11729649_at) / Fold change /veh PRF1 (11729649_at) / RFU, ZNF638 /// ZNF638-IT1 / Fold change vs veh, ZNF638 /// ZNF638-IT1 / RFU, PANK3 / Fold change vs veh, PANK3 / RFU, SH3YL1 / Fold change vs veh, SH3YL1 / RFU, ZEB2 / Fold change vs veh, ZEB2 / RFU, NRIP1 / Fold change vs veh, NRIP1 / RFU, PTTG1IP / Fold change vs veh, PTTG1IP / RFU, CAPN2 / Fold change vs veh, CAPN2 / RFU, MED14 / Fold change vs veh, MED14 / RFU, SNORA58 / Fold change vs veh, SNORA58 / RFU, C1orf63 / Fold change vs veh, C1orf63 / RFU, LRRFIP1 / Fold change vs veh, LRRFIP1 / RFU, NDUFAF7 / Fold change vs veh, NDUFAF7 / RFU, SLC12A2 / Fold change vs veh, SLC12A2 / RFU, IBTK / Fold change vs veh, IBTK / RFU, ESF1 / Fold change vs veh, ESF1 / Fold change vs veh, TMEM50B / RFU, TAOK1 / Fold change vs veh, TAOK1 / RFU, ACBD3 / Fold change vs veh, ACBD3 / RFU, TMA16 / Fold change vs veh, TMA16 / RFU, RWDD3 / Fold change vs veh, RWDD3 / RFU, BCAT1 / Fold change vs veh, BCAT1 / RFU, EDEM3 / Fold change vs veh, EDEM3 / RFU, TMEM33 / Fold change vs veh, TMEM33 / RFU, WDR75 / Fold change vs veh, WDR75 / RFU, AHCTF1 / Fold change vs veh, AHCTF1 / RFU, TFRC / Fold change vs veh, TFRC / RFU, ZDHHC17 / Fold change vs veh, ZDHHC17 / RFU, NOM1 / Fold change vs veh, NOM1 / RFU, ARL8B / Fold change vs veh, ARL8B / RFU, ZBTB11 / Fold change vs veh, ZBTB11 / RFU, TAMM41 / Fold change vs veh, TAMM41 / RFU, KIAA1704 /// LOC100996395 / Fold change vs veh, KIAA1704 /// LOC100996395 / RFU, ING1 / Fold change vs veh, ING1 / RFU, TRMT61B / Fold change vs veh, TRMT61B / RFU, FUBP3 / Fold change vs veh, FUBP3 / RFU, TP53 / Fold change vs veh, TP53 / RFU, TNKS2 / Fold change vs veh, TNKS2 / RFU, ZFP14 / Fold change vs veh, ZFP14 / RFU, ACTR2 / Fold change vs veh, ACTR2 / RFU, PPP3R1 / Fold change vs veh, PPP3R1 / RFU, PIK3R1 / Fold change vs veh, PIK3R1 / RFU, HNRNPA1 / Fold change vs veh, HNRNPA1 / RFU, RNF170 / Fold change vs veh, RNF170 / RFU, ZNF28 / Fold change vs veh, ZNF28 / RFU, RNGTT / Fold change vs veh, RNGTT / RFU, OGT / Fold change vs veh, OGT / RFU, BRD1 / Fold change vs veh, BRD1 / RFU, MARS / Fold change vs veh, MARS / RFU, ZNF655 / Fold change vs veh, ZNF655 / RFU, FAHD1 / Fold change vs veh, FAHD1 / RFU, BDP1 / Fold change vs veh, BDP1 / RFU, LRRCC1 / Fold change vs veh, LRRCC1 / RFU, ARID1A / Fold change vs veh, ARID1A / RFU, ZNF146 / Fold change vs veh, ZNF146 / RFU, ZNF330 / Fold change vs veh, ZNF330 / RFU, GPN3 / Fold change vs veh, GPN3 / RFU, C9orf123 / Fold change vs veh, C9orf123 / RFU, N4BP2L2 / Fold change vs veh, N4BP2L2 / RFU, ARFIP1 / Fold change vs veh, ARFIP1 / RFU, FAM179B / Fold change vs veh, FAM179B / RFU, BCL10 / Fold change vs veh, BCL10 / RFU, UHRF1BP1L / Fold change vs veh, UHRF1BP1L / RFU, BET1 / Fold change vs veh, BET1 / RFU, CNOT2 / Fold change vs veh, CNOT2 / RFU, ZNF268 / Fold change vs veh, ZNF268 / Fold change vs veh, ZNF507 / RFU, DGCR2 / Fold change vs veh, DGCR2 / RFU, WDSUB1 / Fold change vs veh, WDSUB1 / Fold change vs veh, HSP90B1 /// MIR3652 / RFU, ADSS / Fold change vs veh, ADSS / RFU, GK / Fold change vs veh, GK / RFU, ZNF148 / Fold change vs veh, ZNF148 / RFU, TAF9 / Fold change vs veh, TAF9 / RFU, SLC1A5 / Fold change vs veh, SLC1A5 / RFU, SLMO2 / Fold change vs veh, SLMO2 / RFU, ABCC4 / Fold change vs veh, ABCC4 / RFU, LOC101060439 /// RAP1B / Fold change vs veh, LOC101060439 /// RAP1B / RFU, RFX7 / Fold change vs veh, RFX7 / RFU, GTPBP10 / Fold change vs veh, GTPBP10 / RFU, CNEP1R1 / Fold change vs veh, CNEP1R1 / RFU, BIVM-ERCC5 /// ERCC5 / Fold change vs veh, BIVM-ERCC5 /// ERCC5 / RFU, ILF3 / Fold change vs veh, ILF3 / RFU 11762660_at / Fold change /veh 11762660_at / RFU VCAN (11757783_s_at) / Fold change /veh VCAN (11757783_s_at) / RFU DDX43 (11728927_at) / Fold change /veh DDX43 (11728927_at) / RFU KRT8 (11758188_x_at) / Fold change /veh KRT8 (11758188_x_at) / RFU NKD1 (11759106_at) / Fold change /veh NKD1 (11759106_at) / RFU SRD5A1 (11742802_a_at) / Fold change /veh SRD5A1 (11742802_a_at) / RFU TPSAB1 /// TPSB2 (11721975_s_at) / Fold change /veh TPSAB1 /// TPSB2 (11721975_s_at) / RFU GSTM3 (11746129_a_at) / Fold change /veh GSTM3 (11746129_a_at) / RFU IL23R (11737362_x_at) / Fold change /veh IL23R (11737362_x_at) / RFU TMEM51 (11727254_a_at) / Fold change /veh TMEM51 (11727254_a_at) / RFU PIWIL2 (11732686_x_at) / Fold change /veh PIWIL2 (11732686_x_at) / RFU ORM1 (11744905_x_at) / Fold change /veh ORM1 (11744905_x_at) / RFU CCDC152 (11743942_at) / Fold change /veh CCDC152 (11743942_at) / RFU ECM1 (11717891_a_at) / Fold change /veh ECM1 (11717891_a_at) / RFU IL23R (11748794_a_at) / Fold change /veh IL23R (11748794_a_at) / RFU TNFAIP8L3 (11732012_x_at) / Fold change /veh TNFAIP8L3 (11732012_x_at) / RFU MBOAT4 (11741988_at) / Fold change /veh MBOAT4 (11741988_at) / RFU 11764193_at / Fold change /veh 11764193_at / RFU TMEM53 (11763286_at) / Fold change /veh TMEM53 (11763286_at) / RFU MAGEB2 (11727129_at) / Fold change /veh MAGEB2 (11727129_at) / RFU TMEM200A (11744735_a_at) / Fold change /veh TMEM200A (11744735_a_at) / RFU CCDC152 (11751479_a_at) / Fold change /veh CCDC152 (11751479_a_at) / RFU FAM211A (11726209_a_at) / Fold change /veh FAM211A (11726209_a_at) / RFU RGS16 (11746705_a_at) / Fold change /veh RGS16 (11746705_a_at) / RFU VCAN (11755009_s_at) / Fold change /veh VCAN (11755009_s_at) / RFU RHOB (11743442_s_at) / Fold change /veh RHOB (11743442_s_at) / RFU RGS16 (11720943_a_at) / Fold change /veh RGS16 (11720943_a_at) / RFU RGS16 (11720944_at) / Fold change /veh RGS16 (11720944_at) / RFU, VPS4B / Fold change vs veh, VPS4B / RFU, CREB1 / Fold change vs veh, CREB1 / RFU, DNAJC13 / Fold change vs veh, DNAJC13 / RFU, GNAQ / Fold change vs veh, GNAQ / RFU, CDK5R1 / Fold change vs veh, CDK5R1 / RFU, ZRANB3 / Fold change vs veh, ZRANB3 / RFU, CUL4A / Fold change vs veh, CUL4A / RFU, CCNY / Fold change vs veh, CCNY / RFU, UFL1 / Fold change vs veh, UFL1 / RFU, COG3 / Fold change vs veh, COG3 / RFU, DIAPH2 / Fold change vs veh, DIAPH2 / RFU, SKA2 / Fold change vs veh, SKA2 / RFU, AFF3 / Fold change vs veh, AFF3 / RFU, LMF1 / Fold change vs veh, LMF1 / RFU, IPO11 / Fold change vs veh, IPO11 / RFU, DFFB / Fold change vs veh, DFFB / RFU, FOXP1 / Fold change vs veh, FOXP1 / RFU, CARD8 / Fold change vs veh, CARD8 / RFU, STRN3 / Fold change vs veh, STRN3 / RFU, ADK / Fold change vs veh, ADK / RFU, RASSF2 / Fold change vs veh, RASSF2 / RFU, WIPF1 / Fold change vs veh, WIPF1 / RFU, LARP1B / Fold change vs veh, LARP1B / RFU, RASA1 / Fold change vs veh, RASA1 / RFU, RB1 / Fold change vs veh, RB1 / RFU, PPFIA1 / Fold change vs veh, PPFIA1 / RFU, MAT2A / Fold change vs veh, MAT2A / RFU, CCT5 / Fold change vs veh, CCT5 / RFU, WDR92 / Fold change vs veh, WDR92 / RFU, CUX1 / Fold change vs veh, CUX1 / RFU, TTC7A / Fold change vs veh, TTC7A / RFU, TMEM135 / Fold change vs veh, TMEM135 / RFU, DEPTOR / Fold change vs veh, DEPTOR / RFU, CPM / Fold change vs veh, CPM / RFU, DNAJB6 / Fold change vs veh, DNAJB6 / RFU, CACNA2D3 / Fold change vs veh, CACNA2D3 / RFU, DTX4 / Fold change vs veh, DTX4 / RFU, TFCP2 / Fold change vs veh, TFCP2 / RFU, GMCL1 /// GMCL1P1 / Fold change vs veh, GMCL1 /// GMCL1P1 / RFU, AEBP2 / Fold change vs veh, AEBP2 / RFU, SNHG1 /// SNORD22 /// SNORD25 /// SNORD26 /// SNORD27 /// SNORD28 /// SNORD29 /// SNORD31 / Fold change vs veh, SNHG1 /// SNORD22 /// SNORD25 /// SNORD26 /// SNORD27 /// SNORD28 /// SNORD29 /// SNORD31 / Fold change (Aza/veh), C12orf56 (ProbeSet 11735607_a_at) / Fold change (ACY-1035/veh), C12orf56 (ProbeSet 11735607_a_at) / Fold change (Aza/veh), FGFR1OP (ProbeSet 11751329_s_at) / Fold change (ACY-1035/veh), FGFR1OP (ProbeSet 11751329_s_at) / Fold change (Aza/veh), VPS36 (ProbeSet 11739960_a_at) / Fold change (ACY-1035/veh), VPS36 (ProbeSet 11739960_a_at) / RFU SYPL1 (11715823_x_at) / Fold change /veh SYPL1 (11715823_x_at) / RFU IGFBP7 (11715501_s_at) / Fold change /veh IGFBP7 (11715501_s_at) / RFU REEP3 (11722064_at) / Fold change /veh REEP3 (11722064_at) / RFU IGLL1 (11728026_x_at) / Fold change /veh IGLL1 (11728026_x_at): dose or concentration left out as unconfirmed
Details: MV-4-11 cells, 48 hours

For `Nc1ncn([C@@H]2O[C@H](CO)[C@@H](O)[C@H]2O)c(=O)n1` [azacitidine], the “Fold change /veh VCAN (11757783_s_at)” value was 1.30.

Reference: article PMC5218480 (PLoS ONE, 2017)
